Reference: BindingDB's records for patent US12110299 (Yungjin Pharm., 2024)

Target: Cyclin-dependent kinase 7 (Homo sapiens, UniProt P50613)
Experiment: CDK7 Kinase Activity Assay
Experimental: Representative compounds of the present invention were assayed in vitro for CDK7 kinase-inhibitory activities using ADP-Glo platform. In detail, CDK7 kinase-inhibitory activity was measured using recombinant purified human CDK7 kinase (ThermoFisher, PV3868) and ADP Glo kinase assays kit (Promega, V9102). CDK7 kinase was diluted with 1× kinase reaction buffer (40 mM Tris-C1, pH 7.5, 20 mM MgCl2, 0.1 mg/ml BSA and 50 [M DTT) and added to 96 well plates (final concentration of CDK7 per reaction: 50 ng). The compound was finally treated to be a 1% DMSO aqueous solution, and a substrate cocktail containing ATP (final concentration of 90 [M) and 0.2 μg/μl of MBP (Myelin basic protein) in a total of 25 μl of reaction mass was added to 96 well plates, thereby initiating an enzymatic reaction. After 2 hours of incubation (30° C.), equivalent volume (25 μl per reaction) of ADP Glo was added and incubated (30° C.) at room temperature for 60 minutes. […] The kinase activity was measured by chemiluminescence method according to ADP Glo Kanease Assay Kit instruction manual, and the CDK7-inhibitory activity of the compounds according to the present invention was calculated. The result analysis of each compound was performed using Microsoft Excel, and IC50 values were calculated by Prism software.

Cyclin-dependent kinase 7, sequence (P50613 whole entry): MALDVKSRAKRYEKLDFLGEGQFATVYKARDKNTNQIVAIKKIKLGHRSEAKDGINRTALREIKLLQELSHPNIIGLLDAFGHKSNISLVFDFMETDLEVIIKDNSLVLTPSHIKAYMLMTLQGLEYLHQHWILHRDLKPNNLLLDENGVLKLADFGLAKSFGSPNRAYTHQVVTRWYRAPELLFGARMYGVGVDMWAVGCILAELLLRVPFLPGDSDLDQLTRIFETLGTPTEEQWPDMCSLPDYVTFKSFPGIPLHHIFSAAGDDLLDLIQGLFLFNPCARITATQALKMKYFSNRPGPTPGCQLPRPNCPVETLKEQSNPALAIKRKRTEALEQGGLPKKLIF

- IC50: 14 nM
Compound: C[C@H](C(=O)Nc1ncc(Cl)s1)c1cccc(-c2cnc(NC(=O)/C=C/CN3CC4CC3CO4)cn2)c1 (stereo partly specified) [US12110299, Example 94]
